# Measurements as given in ChEMBL document CHEMBL3991601, “The target landscape of clinical kinase drugs” (Science, 2017).
# pKd: −log10 of the molar value. Active and inactive are the calls of the source. Cut-off read from the data, not from the text of the source, for most assays here: actives have a measured Kd and inactives only a lower limit.
# How the values were obtained:
# [1] = target: Proto-oncogene tyrosine-protein kinase receptor Ret (Homo sapiens, UniProt P07949)
# [2] = target: T1, General transcription and DNA repair factor IIH helicase subunit XPD (Homo sapiens, UniProt P18074); settings: read-out: Kd apparent; k-562, colo 205, sk-n-be(2) and mv-4-11
# T1 sequence (P18074 whole entry): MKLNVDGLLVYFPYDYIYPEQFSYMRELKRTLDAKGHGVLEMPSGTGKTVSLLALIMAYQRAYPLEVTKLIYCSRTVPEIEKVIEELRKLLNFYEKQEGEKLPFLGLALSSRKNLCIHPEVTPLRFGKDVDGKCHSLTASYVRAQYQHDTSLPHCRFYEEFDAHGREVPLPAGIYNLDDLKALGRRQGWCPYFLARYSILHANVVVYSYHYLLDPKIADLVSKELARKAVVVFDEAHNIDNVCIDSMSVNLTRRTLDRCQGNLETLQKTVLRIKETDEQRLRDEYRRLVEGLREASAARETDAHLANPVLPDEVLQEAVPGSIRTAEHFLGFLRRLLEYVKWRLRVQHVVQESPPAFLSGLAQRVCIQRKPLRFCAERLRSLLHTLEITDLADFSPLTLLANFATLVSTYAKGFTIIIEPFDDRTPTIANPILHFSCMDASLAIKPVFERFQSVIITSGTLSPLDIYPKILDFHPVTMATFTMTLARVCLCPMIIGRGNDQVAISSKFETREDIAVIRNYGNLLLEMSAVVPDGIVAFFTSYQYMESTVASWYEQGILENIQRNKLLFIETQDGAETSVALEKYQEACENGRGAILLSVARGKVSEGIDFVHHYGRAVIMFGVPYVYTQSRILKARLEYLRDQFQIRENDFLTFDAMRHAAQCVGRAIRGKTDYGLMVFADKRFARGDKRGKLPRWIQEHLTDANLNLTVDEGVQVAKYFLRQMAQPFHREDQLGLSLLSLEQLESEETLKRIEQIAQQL
# [3] = target: T2, Serine/threonine-protein kinase LATS1 (Homo sapiens, UniProt O95835)
# T2 sequence (O95835 whole entry): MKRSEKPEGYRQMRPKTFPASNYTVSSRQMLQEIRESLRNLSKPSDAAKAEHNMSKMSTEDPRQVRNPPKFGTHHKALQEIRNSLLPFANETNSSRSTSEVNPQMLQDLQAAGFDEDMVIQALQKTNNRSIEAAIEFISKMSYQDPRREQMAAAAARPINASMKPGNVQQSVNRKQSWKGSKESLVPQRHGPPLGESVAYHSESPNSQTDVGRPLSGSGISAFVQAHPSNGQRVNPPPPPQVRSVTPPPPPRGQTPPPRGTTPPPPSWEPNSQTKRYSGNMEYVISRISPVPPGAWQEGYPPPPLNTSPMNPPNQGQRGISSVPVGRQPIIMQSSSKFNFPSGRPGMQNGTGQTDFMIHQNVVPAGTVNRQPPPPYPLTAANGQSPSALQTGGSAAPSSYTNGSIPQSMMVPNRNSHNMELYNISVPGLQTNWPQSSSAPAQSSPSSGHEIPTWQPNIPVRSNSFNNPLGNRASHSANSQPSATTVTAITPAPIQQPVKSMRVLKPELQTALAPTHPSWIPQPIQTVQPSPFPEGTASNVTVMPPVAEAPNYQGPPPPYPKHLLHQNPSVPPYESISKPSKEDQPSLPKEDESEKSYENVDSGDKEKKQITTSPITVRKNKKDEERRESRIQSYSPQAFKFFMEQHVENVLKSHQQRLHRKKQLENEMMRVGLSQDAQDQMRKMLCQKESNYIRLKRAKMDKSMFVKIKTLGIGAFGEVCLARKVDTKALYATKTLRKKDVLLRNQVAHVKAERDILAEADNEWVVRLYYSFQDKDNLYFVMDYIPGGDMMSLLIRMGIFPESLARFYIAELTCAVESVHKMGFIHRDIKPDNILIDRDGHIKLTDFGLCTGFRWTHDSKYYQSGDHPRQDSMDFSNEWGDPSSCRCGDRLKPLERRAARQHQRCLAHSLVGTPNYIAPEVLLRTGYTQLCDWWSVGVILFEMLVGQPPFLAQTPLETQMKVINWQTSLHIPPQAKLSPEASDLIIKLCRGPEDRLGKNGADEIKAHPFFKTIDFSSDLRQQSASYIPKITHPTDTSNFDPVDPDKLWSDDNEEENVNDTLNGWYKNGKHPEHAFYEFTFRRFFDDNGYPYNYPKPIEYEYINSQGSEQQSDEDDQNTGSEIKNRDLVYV
# [4] = target: MAP kinase-activated protein kinase 2 (Homo sapiens, UniProt P49137)
# [5] = target: LIM domain kinase 2 (Homo sapiens, UniProt P53671)
# Chain of LIM domain kinase 2 (P53671 whole entry, the tested form may be a part): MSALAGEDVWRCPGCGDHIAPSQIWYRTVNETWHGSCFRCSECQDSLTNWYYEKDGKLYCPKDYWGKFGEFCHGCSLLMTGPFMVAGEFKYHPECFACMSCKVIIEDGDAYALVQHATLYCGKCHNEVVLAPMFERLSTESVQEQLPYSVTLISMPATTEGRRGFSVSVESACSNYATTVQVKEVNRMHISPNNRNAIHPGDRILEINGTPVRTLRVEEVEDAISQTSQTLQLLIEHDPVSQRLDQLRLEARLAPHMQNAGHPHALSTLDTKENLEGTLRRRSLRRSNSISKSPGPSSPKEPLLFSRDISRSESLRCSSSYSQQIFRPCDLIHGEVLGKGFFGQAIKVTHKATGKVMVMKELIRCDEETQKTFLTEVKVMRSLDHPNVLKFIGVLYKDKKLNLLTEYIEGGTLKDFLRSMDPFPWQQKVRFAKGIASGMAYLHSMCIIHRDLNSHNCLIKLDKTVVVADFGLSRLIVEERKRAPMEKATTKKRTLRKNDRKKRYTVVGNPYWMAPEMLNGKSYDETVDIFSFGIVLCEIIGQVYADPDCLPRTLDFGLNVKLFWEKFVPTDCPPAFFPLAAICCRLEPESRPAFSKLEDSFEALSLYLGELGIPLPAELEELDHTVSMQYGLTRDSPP
# [6] = target: ATP-dependent RNA helicase DDX3X (Homo sapiens, UniProt O00571)
# Chain of ATP-dependent RNA helicase DDX3X (O00571 whole entry): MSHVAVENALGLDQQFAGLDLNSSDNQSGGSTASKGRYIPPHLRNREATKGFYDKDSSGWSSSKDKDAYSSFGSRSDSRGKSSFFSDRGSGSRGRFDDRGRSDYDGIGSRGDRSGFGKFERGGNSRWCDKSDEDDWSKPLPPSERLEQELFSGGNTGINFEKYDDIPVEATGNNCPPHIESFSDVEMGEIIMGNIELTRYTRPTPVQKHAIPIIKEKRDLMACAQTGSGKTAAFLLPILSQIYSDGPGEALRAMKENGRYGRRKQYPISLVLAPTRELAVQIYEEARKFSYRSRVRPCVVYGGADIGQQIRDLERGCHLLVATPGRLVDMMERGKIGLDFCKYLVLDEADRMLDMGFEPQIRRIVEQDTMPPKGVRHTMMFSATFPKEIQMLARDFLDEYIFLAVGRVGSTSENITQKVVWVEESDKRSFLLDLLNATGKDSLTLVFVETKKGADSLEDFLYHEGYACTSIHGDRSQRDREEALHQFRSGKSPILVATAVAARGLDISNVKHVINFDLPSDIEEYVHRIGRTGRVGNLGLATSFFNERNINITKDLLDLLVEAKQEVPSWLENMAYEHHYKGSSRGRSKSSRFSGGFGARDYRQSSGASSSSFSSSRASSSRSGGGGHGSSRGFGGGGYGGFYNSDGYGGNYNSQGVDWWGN
# [7] = target: Mitogen-activated protein kinase kinase kinase kinase 1 (Homo sapiens, UniProt Q92918)
# [8] = target: U5 small nuclear ribonucleoprotein 200 kDa helicase (Homo sapiens, UniProt O75643)
# [9] = target: T3, Serine/threonine-protein kinase 3 (Homo sapiens, UniProt Q13188)
# T3 sequence (Q13188 whole entry): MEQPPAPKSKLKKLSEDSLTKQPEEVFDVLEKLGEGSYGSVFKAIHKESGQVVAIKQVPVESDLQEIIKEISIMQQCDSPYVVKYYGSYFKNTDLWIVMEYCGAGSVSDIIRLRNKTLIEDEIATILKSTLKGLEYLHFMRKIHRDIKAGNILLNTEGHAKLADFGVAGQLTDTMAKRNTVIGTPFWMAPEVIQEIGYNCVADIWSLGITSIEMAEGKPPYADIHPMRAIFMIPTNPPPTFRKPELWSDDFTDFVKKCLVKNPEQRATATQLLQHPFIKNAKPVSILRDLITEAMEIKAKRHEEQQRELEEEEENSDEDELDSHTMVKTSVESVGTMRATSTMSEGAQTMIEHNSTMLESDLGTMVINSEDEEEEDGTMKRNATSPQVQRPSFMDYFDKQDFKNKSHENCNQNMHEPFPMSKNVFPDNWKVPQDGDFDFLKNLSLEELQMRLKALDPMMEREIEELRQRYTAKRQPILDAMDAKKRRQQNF
# [10] = target: Myosin light chain kinase, smooth muscle (Homo sapiens, UniProt Q15746)
# Chain of Myosin light chain kinase, smooth muscle (Q15746 whole entry): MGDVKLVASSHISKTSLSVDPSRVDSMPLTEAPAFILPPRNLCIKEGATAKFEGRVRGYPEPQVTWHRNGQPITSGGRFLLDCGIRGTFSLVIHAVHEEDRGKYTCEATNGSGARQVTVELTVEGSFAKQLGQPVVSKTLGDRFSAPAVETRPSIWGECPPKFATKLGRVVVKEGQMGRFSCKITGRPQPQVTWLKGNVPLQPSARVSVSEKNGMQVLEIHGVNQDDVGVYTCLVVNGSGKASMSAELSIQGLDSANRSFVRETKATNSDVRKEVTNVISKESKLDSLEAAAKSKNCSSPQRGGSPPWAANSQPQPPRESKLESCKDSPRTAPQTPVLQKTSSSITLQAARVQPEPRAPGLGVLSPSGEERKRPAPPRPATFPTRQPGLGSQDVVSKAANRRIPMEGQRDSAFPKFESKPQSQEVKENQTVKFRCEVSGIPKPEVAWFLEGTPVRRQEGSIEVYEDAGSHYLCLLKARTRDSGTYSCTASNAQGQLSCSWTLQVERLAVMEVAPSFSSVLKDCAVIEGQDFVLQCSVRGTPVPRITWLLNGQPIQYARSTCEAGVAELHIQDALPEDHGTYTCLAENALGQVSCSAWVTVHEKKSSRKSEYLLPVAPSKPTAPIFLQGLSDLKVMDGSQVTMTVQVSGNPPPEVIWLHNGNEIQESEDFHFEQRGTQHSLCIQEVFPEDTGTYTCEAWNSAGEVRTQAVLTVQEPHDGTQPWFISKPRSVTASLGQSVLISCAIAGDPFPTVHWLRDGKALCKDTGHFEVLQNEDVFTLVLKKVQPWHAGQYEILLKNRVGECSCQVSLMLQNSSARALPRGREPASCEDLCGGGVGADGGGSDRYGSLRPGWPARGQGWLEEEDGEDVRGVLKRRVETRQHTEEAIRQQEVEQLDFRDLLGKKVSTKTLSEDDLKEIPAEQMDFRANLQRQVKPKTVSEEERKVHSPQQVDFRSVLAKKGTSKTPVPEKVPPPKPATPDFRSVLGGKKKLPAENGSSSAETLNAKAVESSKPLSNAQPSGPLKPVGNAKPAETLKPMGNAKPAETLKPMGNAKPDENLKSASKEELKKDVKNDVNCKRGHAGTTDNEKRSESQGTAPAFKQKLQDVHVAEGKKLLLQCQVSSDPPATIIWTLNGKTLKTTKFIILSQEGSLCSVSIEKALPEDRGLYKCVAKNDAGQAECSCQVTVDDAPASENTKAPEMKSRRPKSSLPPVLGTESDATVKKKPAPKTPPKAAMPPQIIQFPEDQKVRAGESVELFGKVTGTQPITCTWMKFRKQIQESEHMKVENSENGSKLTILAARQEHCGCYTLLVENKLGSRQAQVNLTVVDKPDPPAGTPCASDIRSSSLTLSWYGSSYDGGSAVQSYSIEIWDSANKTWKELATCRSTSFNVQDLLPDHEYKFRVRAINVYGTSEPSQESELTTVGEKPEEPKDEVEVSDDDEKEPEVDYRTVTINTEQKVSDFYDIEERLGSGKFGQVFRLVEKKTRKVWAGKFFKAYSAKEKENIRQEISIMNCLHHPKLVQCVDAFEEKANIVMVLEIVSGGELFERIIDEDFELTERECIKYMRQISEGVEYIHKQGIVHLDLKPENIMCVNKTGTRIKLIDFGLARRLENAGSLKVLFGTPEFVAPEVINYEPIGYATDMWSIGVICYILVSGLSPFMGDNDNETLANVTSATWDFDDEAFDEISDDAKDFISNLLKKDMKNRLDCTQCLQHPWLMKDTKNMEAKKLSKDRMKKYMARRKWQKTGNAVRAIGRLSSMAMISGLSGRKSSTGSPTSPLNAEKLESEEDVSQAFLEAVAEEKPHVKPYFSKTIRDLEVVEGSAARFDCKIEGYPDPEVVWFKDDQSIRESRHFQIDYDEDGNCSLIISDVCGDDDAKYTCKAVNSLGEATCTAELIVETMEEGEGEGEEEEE
# [11] = target: Cyclin-dependent kinase 17 (Homo sapiens, UniProt Q00537)
# Chain of Cyclin-dependent kinase 17 (Q00537 whole entry): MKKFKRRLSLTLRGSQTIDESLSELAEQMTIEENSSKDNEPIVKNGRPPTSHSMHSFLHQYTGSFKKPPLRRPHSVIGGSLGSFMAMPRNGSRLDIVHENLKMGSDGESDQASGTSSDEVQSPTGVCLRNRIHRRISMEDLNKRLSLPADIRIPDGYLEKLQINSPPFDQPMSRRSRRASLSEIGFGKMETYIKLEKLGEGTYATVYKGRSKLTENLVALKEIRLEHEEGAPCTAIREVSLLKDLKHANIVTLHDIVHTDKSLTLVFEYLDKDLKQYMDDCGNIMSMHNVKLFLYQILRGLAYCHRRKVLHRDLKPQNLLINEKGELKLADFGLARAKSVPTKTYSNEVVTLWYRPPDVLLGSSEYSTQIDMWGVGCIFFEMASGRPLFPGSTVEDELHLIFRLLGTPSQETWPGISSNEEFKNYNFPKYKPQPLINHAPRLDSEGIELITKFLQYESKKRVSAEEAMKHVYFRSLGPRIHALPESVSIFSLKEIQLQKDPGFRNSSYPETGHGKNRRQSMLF
# Note: in the data inactive means no Kd found up to 30 µM.
# Chain of Proto-oncogene tyrosine-protein kinase receptor Ret (P07949 whole entry): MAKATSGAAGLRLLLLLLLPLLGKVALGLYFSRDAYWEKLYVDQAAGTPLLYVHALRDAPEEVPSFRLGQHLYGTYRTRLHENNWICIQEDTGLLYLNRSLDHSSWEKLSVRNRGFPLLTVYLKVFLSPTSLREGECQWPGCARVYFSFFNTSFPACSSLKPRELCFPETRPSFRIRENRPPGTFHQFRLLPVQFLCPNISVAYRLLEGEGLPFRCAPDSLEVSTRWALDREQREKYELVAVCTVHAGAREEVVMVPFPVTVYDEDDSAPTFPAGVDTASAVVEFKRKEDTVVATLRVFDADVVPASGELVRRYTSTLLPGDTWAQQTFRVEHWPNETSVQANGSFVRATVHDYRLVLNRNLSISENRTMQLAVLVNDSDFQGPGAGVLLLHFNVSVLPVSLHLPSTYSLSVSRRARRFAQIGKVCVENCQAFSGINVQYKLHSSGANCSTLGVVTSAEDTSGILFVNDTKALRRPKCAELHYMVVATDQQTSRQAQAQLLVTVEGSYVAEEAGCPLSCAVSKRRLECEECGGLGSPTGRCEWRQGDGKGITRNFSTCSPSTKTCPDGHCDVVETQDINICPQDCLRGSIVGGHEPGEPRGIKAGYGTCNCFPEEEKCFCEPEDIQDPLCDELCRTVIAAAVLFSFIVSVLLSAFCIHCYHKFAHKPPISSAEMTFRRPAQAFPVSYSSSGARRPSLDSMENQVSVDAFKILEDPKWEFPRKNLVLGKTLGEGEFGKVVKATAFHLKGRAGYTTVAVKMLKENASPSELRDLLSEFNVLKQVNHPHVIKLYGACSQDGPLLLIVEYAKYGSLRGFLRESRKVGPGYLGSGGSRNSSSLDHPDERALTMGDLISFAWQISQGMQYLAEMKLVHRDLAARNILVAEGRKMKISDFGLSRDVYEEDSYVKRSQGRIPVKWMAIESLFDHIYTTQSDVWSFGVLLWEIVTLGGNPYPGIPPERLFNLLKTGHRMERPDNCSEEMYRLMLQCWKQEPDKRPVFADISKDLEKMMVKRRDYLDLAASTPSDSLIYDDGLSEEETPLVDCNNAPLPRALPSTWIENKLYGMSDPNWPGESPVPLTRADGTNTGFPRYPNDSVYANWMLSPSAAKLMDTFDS
Structure (SMILES),Kd [1],Kd [2],Kd [3],Kd [4],Kd [5],Kd [6],Kd [7],Kd [8],Kd [9],Kd [10],Kd [11],pKd [3]
C[C@@H](Oc1cc(C(=O)Nc2ccc(C(=O)N3CCN(C)CC3)cc2)nnc1N)c1c(Cl)ccc(F)c1Cl,> 30 µM (inactive),> 30 µM (inactive),> 30 µM (inactive),> 30 µM (inactive),> 30 µM (inactive),> 30 µM (inactive),> 30 µM (inactive),> 30 µM (inactive),> 30 µM (inactive),> 30 µM (inactive),,
CC(=O)c1cnc2ccc(-c3cc(Cl)c(O)c(Cl)c3)nc2c1N[C@H]1CC[C@H](CN(C)C)CC1,0.028 µM (active),> 30 µM (inactive),0.014 µM (active),,> 30 µM (inactive),> 30 µM (inactive),> 30 µM (inactive),> 30 µM (inactive),0.07 µM (active),> 30 µM (inactive),> 30 µM (inactive),
CCNC(=O)C#Cc1ccc2c(c1)NC(=O)/C2=C(\Nc1ccc(CN(C)C)cc1)c1ccccc1,0.227 µM (active),> 30 µM (inactive),0.635 µM (active),> 30 µM (inactive),> 30 µM (inactive),> 30 µM (inactive),0.875 µM (active),> 30 µM (inactive),5.05 µM (active),> 30 µM (inactive),> 30 µM (inactive),
C=CC(=O)N1CCC[C@H](n2c(=O)n(-c3ccc(Oc4ccccc4)cc3)c3c(N)ncnc32)C1,> 30 µM (inactive),> 30 µM (inactive),> 30 µM (inactive),> 30 µM (inactive),> 30 µM (inactive),> 30 µM (inactive),> 30 µM (inactive),> 30 µM (inactive),> 30 µM (inactive),> 30 µM (inactive),> 30 µM (inactive),
COCc1c(-c2ccc(NC(=O)Nc3cc(C(F)(F)F)ccc3F)c(F)c2)c2c(N)ncnn2c1CN1CCOCC1,0.093 µM (active),> 30 µM (inactive),> 30 µM (inactive),> 30 µM (inactive),> 30 µM (inactive),> 30 µM (inactive),> 30 µM (inactive),> 30 µM (inactive),> 30 µM (inactive),> 30 µM (inactive),> 30 µM (inactive),
Cc1nc(NC(=O)N2CCC[C@H]2C(N)=O)sc1-c1ccnc(C(C)(C)C(F)(F)F)c1 [ALPELISIB],> 30 µM (inactive),> 30 µM (inactive),> 30 µM (inactive),> 30 µM (inactive),> 30 µM (inactive),> 30 µM (inactive),,> 30 µM (inactive),> 30 µM (inactive),> 30 µM (inactive),,
C=CC(=O)Nc1cc2c(Nc3ccc(F)c(Cl)c3)ncnc2cc1C#CC(C)(C)N1CCN(C)CC1 [AV-412 FREE BASE],> 30 µM (inactive),> 30 µM (inactive),> 30 µM (inactive),> 30 µM (inactive),> 30 µM (inactive),> 30 µM (inactive),> 30 µM (inactive),> 30 µM (inactive),> 30 µM (inactive),> 30 µM (inactive),,
COc1c(OCCCN2CCOCC2)ccc2c1N=C(NC(=O)c1cnc(N)nc1)N1CCN=C21 [COPANLISIB],> 30 µM (inactive),,> 30 µM (inactive),> 30 µM (inactive),> 30 µM (inactive),> 30 µM (inactive),> 30 µM (inactive),> 30 µM (inactive),> 30 µM (inactive),> 30 µM (inactive),> 30 µM (inactive),
O=C(Nc1nc2cccc(-c3ccc(CN4CCS(=O)(=O)CC4)cc3)n2n1)C1CC1 [FILGOTINIB],> 30 µM (inactive),,> 30 µM (inactive),> 30 µM (inactive),> 30 µM (inactive),> 30 µM (inactive),> 30 µM (inactive),> 30 µM (inactive),> 30 µM (inactive),> 30 µM (inactive),> 30 µM (inactive),

# More lines, now with the values ahead:
Kd [1],Kd [2],Kd [3],Kd [4],Kd [5],Kd [6],Kd [7],Kd [8],Kd [9],Kd [10],Kd [11],pKd [3],Structure (SMILES)
0.067 µM (active),,> 30 µM (inactive),,> 30 µM (inactive),> 30 µM (inactive),> 30 µM (inactive),> 30 µM (inactive),> 30 µM (inactive),> 30 µM (inactive),> 30 µM (inactive),,CCn1cc(-c2ccnc3[nH]c(-c4cccc(CN(C)C)c4)cc23)c(-c2ccc(NC(=O)N(C)C)cc2)n1 [GSK-1070916]
0.005 µM (active),> 30 µM (inactive),> 30 µM (inactive),> 30 µM (inactive),> 30 µM (inactive),> 30 µM (inactive),> 30 µM (inactive),> 30 µM (inactive),> 30 µM (inactive),,> 30 µM (inactive),,CNC(=O)c1cccc2cc(Oc3ccnc4cc(OCC5(N)CC5)c(OC)cc34)ccc12 [LUCITANIB]
1.32 µM (active),,0.681 µM (active),> 30 µM (inactive),> 30 µM (inactive),> 30 µM (inactive),0.212 µM (active),> 30 µM (inactive),> 30 µM (inactive),> 30 µM (inactive),,,CNC(=O)c1nn(C)c2c1C(C)(C)Cc1cnc(Nc3ccc(N4CCN(C)CC4)cc3)nc1-2 [MILCICLIB]
0.111 µM (active),,> 30 µM (inactive),> 30 µM (inactive),> 30 µM (inactive),> 30 µM (inactive),> 30 µM (inactive),> 30 µM (inactive),2.76 µM (active),> 30 µM (inactive),> 30 µM (inactive),,CCS(=O)(=O)c1cccc(-c2cc(C(=O)NC3CCN(C)CC3)c(C)c3[nH]c4ncc(C)cc4c23)c1 [TAK-901]
> 30 µM (inactive),> 30 µM (inactive),,> 30 µM (inactive),> 30 µM (inactive),> 30 µM (inactive),,> 30 µM (inactive),> 30 µM (inactive),> 30 µM (inactive),,5.44,Cn1ncc(Cl)c1-c1cc(C(=O)N[C@H](CN)Cc2ccc(F)c(F)c2)oc1Cl [UPROSERTIB]
